US4001237A, “Oxazole, isoxazole, thiazole and isothiazole amides” (priority 1976, dated 1977)

Experiment: Clinical use as antihypertensive agent in humans (literature reports)
Type: in vivo, human
Conditions: clinical daily dose ranges 150 to 500 mg. versus 1.5 to 15 mg.

In the case of `COc1cc2c(N)nc(N3CCN(C(=O)OCC(C)(C)O)CC3)nc2c(OC)c1OC` [Trimazosin], the “weaker than prazosin at the lower end of the clinical daily dosage range” value is reported as 100 fold.
